Measurements reported in US3984432A, “Color photographic recording material” (priority 1973, dated 1976).

test: Absorption maximum after colour development in a photographic silver halide layer according to Use Example I; format: physicochemical; conditions: not given
Description: The compounds of the formulae which follow are prepared according to methods which are in themselves known, from the corresponding 4-equivalentcoupling agents (the corresponding compounds with hydrogen in the position marked with *, in place of the substituents drawn). With regard to methods of manufacture, compare DT-OS or DT-AS 1,236,332, 2,043,271, 1,547,672 or 1,187,477. Next to the formula, the absorption maximum in nm is specified in each case (see footnote to Table I). ##SPC8##
*)After colour development of the coupling agents in a photographic silve
halide layer according to Use Example I
0.3 mmol of coupling agent of the formula (215) is dissolved in 2.0 ml of tricresyl phosphate/methylene chloride (3:7). The methylene chloride is evaporated off, 6.0 ml of an 8% strength aqueous solution of sodium isopropylnaphthalene-sulphonate, 20.0 ml of 6% strength gelatine solution and 3.4 ml of water are added and the mixture is adjusted to pH 6.5 and emulsified for 5 minutes by means of an ultrasonic apparatus with an output of 100 watt.
5.0 of coupling agent emulsion freshly treated with ultrasonics, 3.3 ml of silver bromide emulsion of pH 6.5, containing 1.4% of silver and 6.0% of gelatine, 2.0 ml of 1% strength aqueous solution of the hardener of the formula [formula] and 1.7 ml of water are mixed with one another and cast at 40°C on a substrated glass plate of size 13 cm × 18 cm. After solidifying at 10° C, the plate is dried in a drying cabinet with circulating air at 32° C.
A strip cut to 4.0 cm × 6.5 cm is exposed to 500 Lux/cm^2 under a step wedge for 2 seconds and is subsequently treated at 24° C as follows: […]

Row | SMILES | Abs.max. (single maximum) [nm]
1 | CCCCOP(=O)(CCCc1ccc(NC(=O)C(Cl)C(=O)c2ccccc2)cc1)OCCCC (centres unmarked) [(147)] | 436
2 | CCCCOP(=O)(CCCC)Oc1cccc(NC(=O)Cc2ccc(NC(=O)CC(=O)c3ccccc3Cl)cc2)c1 (centres unmarked) [(138)] | 442
3 | CCCCOP(=O)(CCCC)Nc1cccc(NC(=O)c2cc(NC(=O)CC(=O)c3ccccc3)ccc2Cl)c1 (centres unmarked) [(141)] | 438
4 | CCCCC(CC)COP(=O)(CCCOc1cccc(C(=O)Nc2cccc(C(=O)CC(=O)Nc3cc(C)ccc3OC)c2)c1)OCC(CC)CCCC (centres unmarked) [(120)] | 434
5 | CCCCOP(=O)(CCCOc1cc(OCCCP(=O)(OCCCC)OCCCC)cc(C(=O)Nc2ccc(C)c(NC(=O)CC(=O)C(C)(C)C)c2)c1)OCCCC [(117)] | 445
6 | CCOP(=O)(CC(=O)Nc1cccc(NC(=O)CC(=O)c2ccccc2)c1)OCC [(106)] | 442
7 | CCOP(=O)(OCC)C(C)(C)NC(=O)c1cccc(NC(=O)CC(=O)c2ccc([N+](=O)[O-])cc2)c1 [(110)] | 440
8 | CCOP(=O)(OCC)C(C)(C)NC(=O)c1cccc(NC(=O)CC(=O)c2ccccc2)c1 [(108)] | 440
9 | Cc1ccc(C(=O)NCCCP2(=O)OCC(C)(C)CO2)cc1NC(=O)CC(=O)c1ccc(Cl)cc1 [(139)] | 441
10 | CCCCOP(=O)(CCCc1ccc(NC(=O)c2ccc(OC)c(NC(=O)CC(=O)C(C)(C)C)c2)cc1)OCCCC [(118)] | 438
11 | CCCCOP(=O)(CCCc1ccc(NC(=O)CC(=O)c2ccccc2)cc1)OCCCC [(124)] | 436
12 | CCOP(=O)(Cc1ccc(NC(=O)CC(=O)c2ccccc2)cc1)OCC [(102)] | 438

same assay, conditions: pyrazolone coupling agents

Row | SMILES | Abs.max., first of two maxima (subsidiary maximum) [nm] | Abs.max., second of two maxima (absorption maximum) [nm]
13 | CCCCC(CC)COP(=O)(CCCOc1cccc(C(=O)Nc2cccc(C(=O)NC3=NN(c4c(C)cc(Cl)cc4Cl)C(=O)C3)c2)c1)OCC(CC)CCCC (centres unmarked) [(269)] | 438 | 540
14 | CCCCC(CC)COP(=O)(CCCOc1cccc(C(=O)Nc2cccc(NC3=NN(c4ccccc4)C(=O)C3)c2)c1)OCC(CC)CCCC (centres unmarked) [(421)] | 430 | 528
15 | CCCCOP(=O)(CCCOc1cccc(C(=O)Nc2cccc(NC3=NN(c4ccc(S(C)(=O)=O)cc4)C(=O)C3)c2)c1)OCCCC [(429)] | 430 | 538
16 | CCCCC(CC)COP(=O)(CCCOc1cccc(C(=O)Nc2cccc(C(=O)NC3=NN(c4ccccc4)C(=O)C3)c2)c1)OCC(CC)CCCC (centres unmarked) [(225)] | 440 | 532
17 | CCCCC(CC)COP(=O)(CCCOc1cccc(NC2=NN(c3cccc(Cl)c3)C(=O)C2)c1)OCC(CC)CCCC (centres unmarked) [(413)] | 428 | 533
18 | CCCCC(CC)COP(=O)(CCCOc1cccc(C(=O)Nc2cccc(C(=O)NC3=NN(c4c(C)cc(C)cc4Cl)C(=O)C3)c2)c1)OCC(CC)CCCC (centres unmarked) [(262)] | 440 | 536
19 | CCCCOP(=O)(CCCOc1cccc(C(=O)Nc2c(C)cc(C)c(N3N=C(Nc4ccc(Cl)cc4)CC3=O)c2C)c1)OCCCC [(426)] | 430 | 528
20 | CCOP(=O)(CCCCCOc1cccc(C(=O)Nc2cccc(C(=O)NC3=NN(c4c(Cl)cc(Cl)cc4Cl)C(=O)C3)c2)c1)OCC [(230)] | 434 | 544
21 | CCOP(=O)(CCCc1ccc(NC2=NN(c3ccccc3)C(=O)C2)cc1)OCC [(407)] | 429 | 527
22 | CC(C)OP(=O)(CCCCCOc1cc(OCCCCCP(=O)(OC(C)C)OC(C)C)cc(C(=O)Nc2cccc(C(=O)NC3=NN(c4ccccc4)C(=O)C3)c2)c1)OC(C)C [(239)] | 440 | 532
23 | CCOP(=O)(CCCOc1ccc(NC2=NN(c3ccccc3)C(=O)C2)cc1)OCC [(405)] | 428 | 526
24 | CCCCOP(=O)(CCCOc1cccc(NC2=NN(c3cccc(Cl)c3)C(=O)C2)c1)OCCCC [(411)] | 428 | 532
25 | CCCCOP(=O)(CCCOc1cc(OCCCP(=O)(OCCCC)OCCCC)cc(C(=O)Nc2ccc(C(=O)NC3=NN(c4c(Cl)cc(Cl)cc4Cl)C(=O)C3)cc2)c1)OCCCC [(218)] | 436 | 542
26 | CCCCC(CC)COP(=O)(CCCOc1cccc(C(=O)Nc2ccc(NC3=NN(c4ccccc4)C(=O)C3)cc2)c1)OCC(CC)CCCC (centres unmarked) [(420)] | 428 | 529
27 | CCOP(=O)(CCCOc1cc(OCCCP(=O)(OCC)OCC)cc(C(=O)Nc2cccc(C(=O)NC3=NN(c4ccccc4)C(=O)C3)c2)c1)OCC [(228)] | 438 | 533
28 | CCOP(=O)(CCCOc1cc(OCCCP(=O)(OCC)OCC)cc(C(=O)Nc2ccc(C(=O)NC3=NN(c4c(Cl)cc(Cl)cc4Cl)C(=O)C3)cc2)c1)OCC [(208)] | 434 | 546

Row | SMILES | Abs.max., first of two maxima (subsidiary maximum) [nm] | Abs.max., second of two maxima (absorption maximum) [nm]
29 | CCCCOP(=O)(CCCOc1cccc(NC2=NN(c3c(Cl)cc(Cl)cc3Cl)C(=O)C2)c1)OCCCC [(409)] | 426 | 530
30 | CCCCOP(=O)(CCCOc1cc(OCCCP(=O)(OCCCC)OCCCC)cc(C(=O)Nc2cccc(C(=O)NC3=NN(c4c(C)cc(C)cc4Cl)C(=O)C3)c2)c1)OCCCC [(261)] | 440 | 535
31 | CCCCOP(=O)(CCCOc1cc(OCCCP(=O)(OCCCC)OCCCC)cc(C(=O)Nc2cccc(C(=O)NC3=NN(c4cccc(Cl)c4)C(=O)C3)c2)c1)OCCCC [(255)] | 438 | 536
32 | CCCCOP(=O)(CCCOc1cc(OCCCP(=O)(OCCCC)OCCCC)cc(C(=O)Nc2cccc(C(=O)NC3=NN(c4c(C)cc(Cl)cc4Cl)C(=O)C3)c2)c1)OCCCC [(272)] | 438 | 540
33 | CCCCOP(=O)(CCCOc1cccc(C(=O)Nc2cccc(C(=O)NC3=NN(c4ccc(S(C)(=O)=O)cc4)C(=O)C3)c2)c1)OCCCC [(275)] | 440 | 538
34 | CCCCOP(=O)(CCCOc1cc(OCCCP(=O)(OCCCC)OCCCC)cc(C(=O)NC2=NN(c3ccc(C#N)cc3)C(=O)C2)c1)OCCCC [(253)] | 440 | 540
35 | CCOP(=O)(CCCOc1cccc(NC2=NN(c3ccccc3)C(=O)C2)c1)OCC [(401)] | 429 | 524
36 | CCCCC(CC)COP(=O)(CCCOc1cccc(C(=O)Nc2ccc(C(=O)NC3=NN(c4c(Cl)cc(Cl)cc4Cl)C(=O)C3)cc2)c1)OCC(CC)CCCC (centres unmarked) [(215)] | 434 | 540
37 | CCOP(=O)(CCCOc1cccc(C(=O)Nc2cccc(C(=O)NC3=NN(c4c(Cl)cc(Cl)cc4Cl)C(=O)C3)c2)c1)OCC [(205)] | 434 | 542
38 | CCOP(=O)(CCCCCOc1cccc(C(=O)NC2=NN(c3c(Cl)cc(Cl)cc3Cl)C(=O)C2)c1)OCC [(213)] | 434 | 537
39 | CCCCOP(=O)(CCCOc1cc(OCCCP(=O)(OCCCC)OCCCC)cc(C(=O)Nc2ccc(Cl)c(NC3=NN(c4c(Cl)cc(Cl)cc4Cl)C(=O)C3)c2)c1)OCCCC [(428)] | 430 | 537
40 | CCCCC(CC)COP(=O)(CCCOc1cccc(C(=O)Nc2cccc(C(=O)NC3=NN(c4c(Cl)cc(OC)cc4Cl)C(=O)C3)c2)c1)OCC(CC)CCCC (centres unmarked) [(267)] | 436 | 536
41 | CCOP(=O)(CCCOc1cccc(NC2=NN(c3cccc(Cl)c3)C(=O)C2)c1)OCC [(402)] | 430 | 534
42 | CCCCC(CC)COP(=O)(CCCOc1cccc(C(=O)Nc2cccc(NC(=O)NC3=NN(c4c(Cl)cc(Cl)cc4Cl)C(=O)C3)c2)c1)OCC(CC)CCCC (centres unmarked) [(274)] | 430 | 546
43 | CCCCOP(=O)(CCCOc1cccc(C(=O)Nc2cccc(NC3=NN(c4ccc(S(=O)(=O)N(CC)CC)cc4)C(=O)C3)c2)c1)OCCCC [(427)] | 431 | 538
